Reference: publication PMC3210832 (Journal of Pharmaceutical Sciences, 2011)

Assays:
[1] = Bidirectional transport across Caco-2 cell monolayers; conditions: human, Caco-2, pH 7.4
Transport = conditions: rat, pH 7.4
HIV-1 in MT4 cells = experiment: In vitro anti-HIV activity in MT4 cells, colorimetric XTT assay; type: cell-based; conditions: Human immunodeficiency virus 1, MT4
HIV-1 protease = HIV-1 protease (Human immunodeficiency virus type 1 group M subtype B, UniProt P04585); experiment: HIV-1 protease inhibition, fluorometric assay; type: biochemical

SMILES	Papp A→B [1] [×10⁻⁶ cm/s]	Papp B→A [1] [×10⁻⁶ cm/s]	efflux ratio [1]	Papp (Transport) [×10⁻⁶ cm/s]	Papp at 90 min (Transport) [×10⁻⁶ cm/s]	EC50 (HIV-1 in MT4 cells) [nM]	Ki (HIV-1 protease) [nM]
CNC(=O)[C@@H](NC(=O)[C@](O)(Cc1ccccc1)CN(Cc1ccc(-c2ccccn2)cc1)NC(=O)[C@@H](NC(=O)OC)C(C)(C)C)C(C)(C)C [Compound 11, methyl (S)-1-(2-((S)-2-benzyl-3-((S)-3,3-dimethyl-1-(methylamino)-1-oxobutan-2-ylamino)-2-hydroxy-3-oxopropyl)-2-(4-(pyridin-2-yl)benzyl)hydrazinyl)-3,3-dimethyl-1-oxobutan-2-ylcarbamate]	3.4 ± 0.4	26 ± 9.1	7.6	3.8	< 8	> 10000	23
CC(C)(C)NC(=O)[C@@H]1CN(Cc2cccnc2)CCN1C[C@@H](O)C[C@@H](Cc1ccccc1)C(=O)N[C@H]1c2ccccc2C[C@H]1O [Indinavir, reference compound]						41	
